In publication PMC4359373, “Mechanistic insight into the conserved allosteric regulation of periplasmic proteolysis by the signaling molecule cyclic-di-GMP” (eLife, 2014):
Where “and” joins values, the source holds several entries; their conditions need not be identical. Equal entries are not always repeated.

Key:
[1] = biological target: T1, LapD (LapD-sfGFP, full-length), with LapG (Pseudomonas fluorescens, UniProt Q3KK31); assay: UV cross-linking of LapG-V205pAzF to LapD-sfGFP, in-gel fluorescence; assay type: binding; details: 2 μM LapD-sfGFP, 1 μM LapG, 2.5 mM CaCl2, pH 7.5, room temperature; detergent-solubilized; concentration range of sharp transition, not an EC50
T1 construct: full-length transmembrane LapD with C-terminal TEV site-sfGFP-His6, E. coli, detergent-solubilized (LMNG/CHAPS); LapG without signal peptide carrying para-azidophenylalanine at V205, sfGFP cut off; with Periplasmic cysteine protease LapG
T1 sequence (Q3KK31 1-648): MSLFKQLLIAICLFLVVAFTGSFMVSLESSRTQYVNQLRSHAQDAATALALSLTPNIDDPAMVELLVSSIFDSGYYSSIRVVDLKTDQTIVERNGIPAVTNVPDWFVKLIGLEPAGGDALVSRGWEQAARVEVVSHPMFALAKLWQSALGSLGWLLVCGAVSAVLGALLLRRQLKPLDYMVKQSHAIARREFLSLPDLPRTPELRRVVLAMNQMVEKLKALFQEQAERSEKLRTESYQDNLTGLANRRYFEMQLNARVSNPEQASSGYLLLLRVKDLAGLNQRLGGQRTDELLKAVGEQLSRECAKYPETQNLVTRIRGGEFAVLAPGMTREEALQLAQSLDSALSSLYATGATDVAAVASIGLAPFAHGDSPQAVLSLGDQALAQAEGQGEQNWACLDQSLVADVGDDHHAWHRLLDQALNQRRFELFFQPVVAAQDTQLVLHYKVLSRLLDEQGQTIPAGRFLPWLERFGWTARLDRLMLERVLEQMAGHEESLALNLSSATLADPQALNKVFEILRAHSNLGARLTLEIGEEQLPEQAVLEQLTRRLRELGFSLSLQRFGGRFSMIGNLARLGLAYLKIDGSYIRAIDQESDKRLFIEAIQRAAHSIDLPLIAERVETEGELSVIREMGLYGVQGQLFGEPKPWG
T1 sequence (Q3KK32 50-251 partner): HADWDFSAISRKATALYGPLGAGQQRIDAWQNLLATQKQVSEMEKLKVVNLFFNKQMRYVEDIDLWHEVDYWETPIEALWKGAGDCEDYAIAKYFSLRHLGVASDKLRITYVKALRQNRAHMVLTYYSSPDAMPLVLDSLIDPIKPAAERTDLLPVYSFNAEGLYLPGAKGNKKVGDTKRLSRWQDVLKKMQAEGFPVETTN

[2] = biological target: full-length P. fluorescens LapD fused C-terminally to superfolder GFP (LapD-sfGFP), wild type (P. fluorescens) (UniProt Q3KK31); assay: cross-linking

| switch in LapG cross-linking [1] [µM] | other (LapG:LapD molar ratio) [2] | Compound |
| --- | --- | --- |
| 0.75 to 1 | – | Nc1nc2c(ncn2[C@@H]2O[C@@H]3COP(=O)(O)O[C@H]4[C@@H](O)[C@H](n5cnc6c(=O)[nH]c(N)nc65)O[C@@H]4COP(=O)(O)O[C@H]3[C@H]2O)c(=O)[nH]1 [c-di-GMP] |
| – | 0.3 and 0.5 | non-fluorescent P. fluorescens LapG with pAzF at Y206 (enzyme) |
